Laboratory results: patent publication US20230398130A1, “METHODS AND COMPOSITIONS FOR DIFFERENTIATING STEM CELLS” (Massachusetts Institute of Technology, priority 2020, published 2023)

Experiments:
[1] = tested on: ISC-enriched organoids; assay: Primary screen, 384-well 2.5-D organoid differentiation (ENR+CD, 6 days): basal lysozyme secretion (LYZ.NS); type: cell-based, murine; details: for Dose.FC.LYZ.NS: FC vs plate median; for SSMD.LYZ.NS: strictly standardized mean difference; for Dose.FC.LYZ.NS (log 2 fold change, basal lysozyme secretion): vs plate median
Text: (§1) High-throughput screening.

[2] = tested on: ISC-enriched organoids; assay: Primary screen, 384-well 2.5-D organoid differentiation (ENR+CD, 6 days): carbachol-induced lysozyme secretion (LYZ.S); type: cell-based, murine; details: for Dose.FC.LYZ.S / Z.LYZ.S / SSMD.LYZ.S: primary screen; for Dose.FC.LYZ.S: FC vs plate median; for Z.LYZ.S: standard z score; for SSMD.LYZ.S: strictly standardized mean difference; for Dose.FC.LYZ.S (log 2 fold change, carbachol-induced lysozyme secretion): vs plate median
Text: as §1

[3] = tested on: ISC-enriched organoids; assay: Primary screen, 384-well 2.5-D organoid differentiation (ENR+CD, 6 days, Target Selective Inhibitor Library, vs whole-plate median): ATP (CellTiter-Glo 3D, CTG); details: for Dose.FC.CTG: FC vs plate median; for SSMD.CTG: strictly standardized mean difference; for Dose.FC.CTG (log 2 fold change, ATP): vs plate median
[4] = Dose 0.08 uM, primary screen, standard z score
[5] = Dose 0.40 uM, primary screen, standard z score
[6] = Dose 2.00 uM, primary screen, standard z score
[7] = Dose 10.00 uM, primary screen, standard z score
[8] = primary screen, 1st of the 4 dose lines of the treatment (dose not given)
[9] = primary screen, 2nd of the 4 dose lines of the treatment (dose not given)
[10] = primary screen, 3rd of the 4 dose lines of the treatment (dose not given)
[11] = primary screen, 4th of the 4 dose lines of the treatment (dose not given)
[12] = 1st of the 4 dose lines of the treatment (dose not given)
[13] = 2nd of the 4 dose lines of the treatment (dose not given)
[14] = 3rd of the 4 dose lines of the treatment (dose not given)
[15] = 4th of the 4 dose lines of the treatment (dose not given)
[16] = Dose 0.08 uM, standard z score of FC
[17] = Dose 0.40 uM, standard z score of FC
[18] = Dose 2.00 uM, standard z score of FC
[19] = Dose 10.00 uM, standard z score of FC

## CC(C)(C)c1cc(C(C)(C)C)c(NC(=O)c2c[nH]c3ccccc3c2=O)cc1O [Ivacaftor (VX-770)]
[1]; Dose 0.08 uM, primary screen
  Dose.FC.LYZ.NS: 0.099 log 2 fold change
[1]; [4]
  Z.LYZ.NS: 0.864
[1]; Dose 0.40 uM, primary screen
  Dose.FC.LYZ.NS: 0.127 log 2 fold change
[1]; [5]
  Z.LYZ.NS: 1.109
[1]; Dose 2.00 uM, primary screen
  Dose.FC.LYZ.NS: 0.082 log 2 fold change
[1]; [6]
  Z.LYZ.NS: 0.717
[1]; Dose 10.00 uM, primary screen
  Dose.FC.LYZ.NS: −0.142 log 2 fold change
[1]; [7]
  Z.LYZ.NS: −1.240
[1]; [8]
  SSMD.LYZ.NS: 0.882
[1]; [9]
  SSMD.LYZ.NS: 0.825
[1]; [10]
  SSMD.LYZ.NS: 0.582
[1]; [11]
  SSMD.LYZ.NS: −1.167
[2]; Dose 0.08 uM
  Dose.FC.LYZ.S: 0.132 log 2 fold change
[2]; Dose 0.40 uM
  Dose.FC.LYZ.S: 0.189 log 2 fold change
[2]; Dose 2.00 uM
  Dose.FC.LYZ.S: 0.019 log 2 fold change
[2]; Dose 10.00 uM
  Dose.FC.LYZ.S: −0.253 log 2 fold change
[2]; [12]
  Z.LYZ.S: 0.853
  SSMD.LYZ.S: 0.705
[2]; [13]
  Z.LYZ.S: 1.220
  SSMD.LYZ.S: 1.209
[2]; [14]
  Z.LYZ.S: 0.124
  SSMD.LYZ.S: 0.148
[2]; [15]
  Z.LYZ.S: −1.636
  SSMD.LYZ.S: −1.350
[3]; Dose 0.08 uM, primary screen
  Dose.FC.CTG: 0.234 log 2 fold change
[3]; [4]
  Z.CTG: 0.558
[3]; Dose 0.40 uM, primary screen
  Dose.FC.CTG: 0.145 log 2 fold change
[3]; [5]
  Z.CTG: 0.347
[3]; Dose 2.00 uM, primary screen
  Dose.FC.CTG: −0.148 log 2 fold change
[3]; [6]
  Z.CTG: −0.354
[3]; Dose 10.00 uM, primary screen
  Dose.FC.CTG: −0.470 log 2 fold change
[3]; [7]
  Z.CTG: −1.123
[3]; [8]
  SSMD.CTG: 0.431
[3]; [9]
  SSMD.CTG: 0.280
[3]; [10]
  SSMD.CTG: −0.331
[3]; [11]
  SSMD.CTG: −1.317

## CN1C(=O)C(Cc2c[nH]c3ccccc23)NC1=S (stereo not drawn) [Necrostatin-1]
[1]; Dose 0.08 uM, primary screen
  Dose.FC.LYZ.NS: 0.060 log 2 fold change
[1]; [16]
  Z.LYZ.NS: 0.524
[1]; Dose 0.40 uM, primary screen
  Dose.FC.LYZ.NS: 0.020 log 2 fold change
[1]; [17]
  Z.LYZ.NS: 0.174
[1]; Dose 2.00 uM, primary screen
  Dose.FC.LYZ.NS: 0.154 log 2 fold change
[1]; [18]
  Z.LYZ.NS: 1.338
[1]; Dose 10.00 uM, primary screen
  Dose.FC.LYZ.NS: 0.057 log 2 fold change
[1]; [19]
  Z.LYZ.NS: 0.496
[2]; Dose 0.08 uM
  Dose.FC.LYZ.S: 0.077 log 2 fold change
[2]; Dose 0.40 uM
  Dose.FC.LYZ.S: 0.038 log 2 fold change
[2]; Dose 2.00 uM
  Dose.FC.LYZ.S: 0.092 log 2 fold change
[2]; Dose 10.00 uM
  Dose.FC.LYZ.S: 0.229 log 2 fold change
[3]; Dose 0.08 uM, primary screen
  Dose.FC.CTG: 0.102 log 2 fold change
[3]; [16]
  Z.CTG: 0.244
[3]; Dose 0.40 uM, primary screen
  Dose.FC.CTG: 0.168 log 2 fold change
[3]; [17]
  Z.CTG: 0.401
[3]; Dose 2.00 uM, primary screen
  Dose.FC.CTG: 0.011 log 2 fold change
[3]; [18]
  Z.CTG: 0.027
[3]; Dose 10.00 uM, primary screen
  Dose.FC.CTG: 0.137 log 2 fold change
[3]; [19]
  Z.CTG: 0.328

## Cc1cc(-c2ccc(CC(=O)Nc3ccc(-c4cccnc4)cc3)cc2)ccn1 [Wnt-C59 (C59)]
[1]; dose 0.08 uM
  Z.LYZ.NS (standard z score): −1.424
  Dose.FC.LYZ.NS (log 2 fold change, basal lysozyme secretion): −0.163
[1]; dose 0.40 uM
  Z.LYZ.NS (standard z score): −1.588
  Dose.FC.LYZ.NS (log 2 fold change, basal lysozyme secretion): −0.182
[1]; dose 2.00 uM
  Z.LYZ.NS (standard z score): −1.724
  Dose.FC.LYZ.NS (log 2 fold change, basal lysozyme secretion): −0.198
[1]; dose 10.00 uM
  Z.LYZ.NS (standard z score): −1.666
  Dose.FC.LYZ.NS (log 2 fold change, basal lysozyme secretion): −0.191
[2]; dose 0.08 uM
  Dose.FC.LYZ.S (log 2 fold change, carbachol-induced lysozyme secretion): −0.242
[2]; dose 0.40 uM
  Dose.FC.LYZ.S (log 2 fold change, carbachol-induced lysozyme secretion): −0.281
[2]; dose 2.00 uM
  Dose.FC.LYZ.S (log 2 fold change, carbachol-induced lysozyme secretion): −0.313
[2]; dose 10.00 uM
  Dose.FC.LYZ.S (log 2 fold change, carbachol-induced lysozyme secretion): −0.301
[3]; dose 0.08 uM
  Z.CTG (standard z score): −1.366
  Dose.FC.CTG (log 2 fold change, ATP): −0.572
[3]; dose 0.40 uM
  Z.CTG (standard z score): −1.461
  Dose.FC.CTG (log 2 fold change, ATP): −0.611
[3]; dose 2.00 uM
  Z.CTG (standard z score): −1.498
  Dose.FC.CTG (log 2 fold change, ATP): −0.627
[3]; dose 10.00 uM
  Z.CTG (standard z score): −1.465
  Dose.FC.CTG (log 2 fold change, ATP): −0.613

## C/C(=N\NC(=S)N1CCC1)c1ccccn1 [NSC 319726]
[1]; Dose 0.08 uM, primary screen
  Dose.FC.LYZ.NS: 0.113 log 2 fold change
[1]; [16]
  Z.LYZ.NS: 0.982
[1]; Dose 0.40 uM, primary screen
  Dose.FC.LYZ.NS: −0.090 log 2 fold change
[1]; [17]
  Z.LYZ.NS: −0.780
[1]; Dose 2.00 uM, primary screen
  Dose.FC.LYZ.NS: −0.152 log 2 fold change
[1]; [18]
  Z.LYZ.NS: −1.323
[1]; Dose 10.00 uM, primary screen
  Dose.FC.LYZ.NS: −0.229 log 2 fold change
[1]; [19]
  Z.LYZ.NS: −1.992
[2]; Dose 0.08 uM
  Dose.FC.LYZ.S: 0.060 log 2 fold change
[2]; Dose 0.40 uM
  Dose.FC.LYZ.S: −0.035 log 2 fold change
[2]; Dose 2.00 uM
  Dose.FC.LYZ.S: −0.248 log 2 fold change
[2]; Dose 10.00 uM
  Dose.FC.LYZ.S: −0.327 log 2 fold change
[3]; Dose 0.08 uM, primary screen
  Dose.FC.CTG: 0.132 log 2 fold change
[3]; [16]
  Z.CTG: 0.316
[3]; Dose 0.40 uM, primary screen
  Dose.FC.CTG: −0.185 log 2 fold change
[3]; [17]
  Z.CTG: −0.441
[3]; Dose 2.00 uM, primary screen
  Dose.FC.CTG: −0.447 log 2 fold change
[3]; [18]
  Z.CTG: −1.068
[3]; Dose 10.00 uM, primary screen
  Dose.FC.CTG: −1.907 log 2 fold change
[3]; [19]
  Z.CTG: −4.555
